Assay results published in patent US7115641B2, “Antimicrobial oxazolidine/iodopropynyl-butyl carbamate composition containing less than 0.1wt% free formaldehyde” (ISP Investments Inc., priority 2003, dated 2006).

Tests used:
Assay type in all cases: cell-based
[1] = system: mixed culture of Pseudomonas aeruginosa, Enterobacter cloacae, Bacillus subtilis, B. megaterium, B. licheniformis, Aspergillus niger and Penicillium …; assay: Latex paint in-can preservation, ASTM D2574-94, mixed inoculum; design: key: 0: no growth; 4: heavy growth
Method: The efficacy of each individual compound or their combination was measured in a latex paint artificially contaminated with a mixed inoculum. The microbiological evaluations shown as examples, are based on ASTM D2574–94, “Resistance of emulsion paints in the container to the attack of microorganisms”. Briefly, paint samples (e.g. Polyvinyl Acrylic, PCL 717) were prepared to contain different concentrations of each compound or their mixtures in different concentrations and ratios. Each paint sample thus prepared was then inoculated with a mixed culture of Pseudomonas aeruginosa, Enterobacter cloacae, Bacillus subtilis, B. megaterium, B. licheniformis, Aspergillus niger and Penicillium funiculosum (final concentration of about 10^6 CFU/ml) and re-challenged after 7 days (final concentration of about 10^7 CFU/ml). Paint samples were incubated at 32° C. for the duration of the test and sampled for the presence of viable bacteria on TSA and M plates. Growth was rated on a scale from “0” (no growth) to “4” (heavy growth). A paint sample was considered appropriately preserved if no bacterial growth (“0” rating) was detected after six days incubation in both challenge assays.
The table summarizes the results obtained when mixtures of the low formaldehyde hydroxymethyl oxazolidine (HMBO) (compound A) and IPBC (compound B) in PEG-400 were tested.

[2] = system: Bacillus subtilis (ATCC 27328); assay: MIC and synergy in Tryptic Soy Broth; conditions: TSB, 32° C., 2–3 days
Method: (§1) One hundred μl of the bacterial suspensions were added to TSB broth containing each biocide or biocide mixture to a final concentration of approximately 10^6 CFU/ml. The inoculated broth was then incubated at 32° C. for 2–3 days. For fungi MIC, 10 μl of the fungi suspensions were pipetted to the solidified Malt agar containing various concentrations of each biocide or the biocide mixture. Final concentration about 10^5 spores/ml. Plates were incubated for 10–12 days at 28° C.
(§2) The lowest concentration of each compound or mixture to inhibit visible growth at 32° C. after 2–3 days for bacteria and at 28° after 10–12 days for fungi were taken as the Minimal Inhibitory Concentration (MIC). The MIC was taken as endpoints of activity. End points for the mixture of HMBO and IPBC where then compared with the end points for the pure active compound when employed individually.
(§3) Synergism was determined by a commonly used method described by Kull, A. C., Eisman, P. C, Sylwestrowicz, H., D. and Mayer, R. L. (1961). Applied Microbiology, 9:538 using the ratio determined by: Qa/QA+Qb/QB=Synergy Index (SI).
Wherein: QA is the concentration of HMBO in parts per million (ppm), acting alone, which produced and end point. Qa is the concentration of HMBO in ppm, in the mixture, which produced and end point. […]

[3] = system: Alternaria alternata; assay: MIC and synergy on Malt Agar; conditions: 28° C., 10–12 days
Method: as §1, §2, §3
(§4) Wherein: QA is the concentration of HMBO in parts per million (ppm), acting alone, which produced and end point. Qa is the concentration of HMBO in ppm, in the mixture, which produced and end point. QB is the concentration of IPBC in ppm, acting alone, which produced an end point and Qb is the concentraton of IPBC in ppm, in the mixture, which produced an end point.
(§5) When the sum of Qa/QA+Qb/QB is greater than one, antagonism is indicated. When the sum is equal to one, additivity is indicated.

[4] = system: Aspergillus niger (ATCC 6275); assay: MIC and synergy on Malt Agar; conditions: 28° C., 10–12 days
Method: as §1, §2, §3, §4, §5

## OCC12COCN1COC2 [compound A, hydroxymethyl bicyclic oxazolidine]
[1]; A alone 500 ppm
  Growth rating MALT Plates CI 1: 0
  Growth rating MALT Plates CI 2: 0
  Growth rating MALT Plates CI 3: 0
  Growth rating MALT Plates CI 6: 0
  Growth rating MALT Plates CII 1: 0
  Growth rating MALT Plates CII 2: 0
  Growth rating MALT Plates CII 3: 0
  Growth rating MALT Plates CII 6: 0
  Growth rating TSA plates CI 1: 0
  Growth rating TSA plates CI 2: 0
  Growth rating TSA plates CI 3: 0
  Growth rating TSA plates CI 6: 0
  Growth rating TSA plates CII 1: 1
  Growth rating TSA plates CII 2: 1
  Growth rating TSA plates CII 3: 1
  Growth rating TSA plates CII 6: 1
[1]; A alone 520 ppm
  Growth rating MALT Plates CI 1: 0
  Growth rating MALT Plates CI 2: 0
  Growth rating MALT Plates CI 3: 0
  Growth rating MALT Plates CI 6: 0
  Growth rating MALT Plates CII 1: 0
  Growth rating MALT Plates CII 2: 1
  Growth rating MALT Plates CII 3: 1
  Growth rating MALT Plates CII 6: 0
  Growth rating TSA plates CI 1: 0
  Growth rating TSA plates CI 2: 0
  Growth rating TSA plates CI 3: 0
  Growth rating TSA plates CI 6: 0
  Growth rating TSA plates CII 1: 0
  Growth rating TSA plates CII 2: 0
  Growth rating TSA plates CII 3: 1
  Growth rating TSA plates CII 6: 0
[2]
  Minimal Inhibitory Concentration (MIC), acting alone: 250 ppm
[3]
  Minimal Inhibitory Concentration (MIC), acting alone: 250 ppm
[4]
  Minimal Inhibitory Concentration (MIC), acting alone: 1,000 ppm

## CCCCNC(=O)OCC#CI [compound B, iodopropynyl butyl carbamate]
[1]; B alone 60 ppm
  Growth rating MALT Plates CI 1: 0
  Growth rating MALT Plates CI 2: 1
  Growth rating MALT Plates CI 3: 0
  Growth rating MALT Plates CI 6: 0
  Growth rating MALT Plates CII 1: 4
  Growth rating MALT Plates CII 2: 4
  Growth rating MALT Plates CII 3: 4
  Growth rating MALT Plates CII 6: 4
  Growth rating TSA plates CI 1: 0
  Growth rating TSA plates CI 2: 0
  Growth rating TSA plates CI 3: 1
  Growth rating TSA plates CI 6: 0
  Growth rating TSA plates CII 1: 4
  Growth rating TSA plates CII 2: 4
  Growth rating TSA plates CII 3: 4
  Growth rating TSA plates CII 6: 3
[1]; B alone 120 ppm
  Growth rating MALT Plates CI 1: 4
  Growth rating MALT Plates CI 2: 4
  Growth rating MALT Plates CI 3: 2
  Growth rating MALT Plates CI 6: 0
  Growth rating MALT Plates CII 1: 4
  Growth rating MALT Plates CII 2: 4
  Growth rating MALT Plates CII 3: 4
  Growth rating MALT Plates CII 6: 4
  Growth rating TSA plates CI 1: 4
  Growth rating TSA plates CI 2: 2
  Growth rating TSA plates CI 3: 0
  Growth rating TSA plates CI 6: 0
  Growth rating TSA plates CII 1: 4
  Growth rating TSA plates CII 2: 3
  Growth rating TSA plates CII 3: 3
  Growth rating TSA plates CII 6: 3
[1]; B alone 200 ppm
  Growth rating MALT Plates CI 1: 4
  Growth rating MALT Plates CI 2: 2
  Growth rating MALT Plates CI 3: 1
  Growth rating MALT Plates CI 6: 0
  Growth rating MALT Plates CII 1: 4
  Growth rating MALT Plates CII 2: 4
  Growth rating MALT Plates CII 3: 4
  Growth rating MALT Plates CII 6: 4
  Growth rating TSA plates CI 1: 4
  Growth rating TSA plates CI 2: 2
  Growth rating TSA plates CI 3: 0
  Growth rating TSA plates CI 6: 0
  Growth rating TSA plates CII 1: 4
  Growth rating TSA plates CII 2: 3
  Growth rating TSA plates CII 3: 3
  Growth rating TSA plates CII 6: 3
[2]
  Minimal Inhibitory Concentration (MIC), acting alone: 62.5 ppm
[3]
  Minimal Inhibitory Concentration (MIC), acting alone: 0.50 ppm
[4]
  Minimal Inhibitory Concentration (MIC), acting alone: 0.25 ppm
